# Laboratory results from PubChem BioAssay AID1963961 (Molecular Pharmacology Branch, DTP, NCI, 2024).
# System: K98450-129-R-PDC multicell spheroids, viability
# Experiment: Anticancer human tumor K98450-129-R-PDC patient-derived colon adenocarcinoma cell line growth inhibition [PI3K]
# Conditions: for IC50: curve of first compound; for viability, T/C: stronger effect = lower value
# Procedure, shortened: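 Tumor cells were combined with HUVEC and MSCs into spheroids, then dosed with PI3K-inhibitor combinations over half-log ranges capped near clinical Cmax or 10 microM.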
# [1] = second compound 0.0316 µM, first compound 0.0316 µM
# [2] = second compound 0.0316 µM, first compound 0.1 µM
# [3] = second compound 0.0316 µM, first compound 0.316 µM
# [4] = second compound 0.0316 µM, first compound 1 µM
# [5] = second compound 0.0316 µM, first compound 3.16 µM
# [6] = second compound 0.0316 µM, first compound 10 µM
# [7] = second compound 0.1 µM, first compound 0.0316 µM
# [8] = second compound 0.1 µM, first compound 0.1 µM
# [9] = second compound 0.1 µM, first compound 0.316 µM
# [10] = second compound 0.1 µM, first compound 1 µM
# [11] = second compound 0.1 µM, first compound 3.16 µM
# [12] = second compound 0.1 µM, first compound 10 µM
# [13] = second compound 0.316 µM, first compound 0.0316 µM
# [14] = second compound 0.316 µM, first compound 0.1 µM
# [15] = second compound 0.316 µM, first compound 0.316 µM
# [16] = second compound 0.316 µM, first compound 1 µM
# [17] = second compound 0.316 µM, first compound 3.16 µM
# [18] = second compound 0.316 µM, first compound 10 µM
# [19] = second compound 1 µM, first compound 0.0316 µM
# [20] = second compound 1 µM, first compound 0.1 µM
# [21] = second compound 1 µM, first compound 0.316 µM
# [22] = second compound 1 µM, first compound 1 µM
# [23] = second compound 1 µM, first compound 3.16 µM
# [24] = second compound 1 µM, first compound 10 µM
# [25] = second compound 0.00316 µM, first compound 0.0316 µM
# [26] = second compound 0.00316 µM, first compound 0.1 µM
# [27] = second compound 0.01 µM, first compound 0.0316 µM
# [28] = second compound 0.01 µM, first compound 0.1 µM
# [29] = second compound 0.00316 µM, first compound 0.316 µM
# [30] = second compound 0.00316 µM, first compound 1 µM
# [31] = second compound 0.00316 µM, first compound 3.16 µM
# [32] = second compound 0.00316 µM, first compound 10 µM
# [33] = second compound 0.01 µM, first compound 0.316 µM
# [34] = second compound 0.01 µM, first compound 1 µM
# [35] = second compound 0.01 µM, first compound 3.16 µM
# [36] = second compound 0.01 µM, first compound 10 µM
# 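Note: spheroids exposed to agents for seven days before read-out.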
structure (smiles),measurement,setting,value
C[C@@H](NC(=O)c1ncnc(N)c1Cl)c1ncc(C(=O)Nc2cc(C(F)(F)F)c(Cl)cn2)s1 + Cc1nc(NC(=O)N2CCCC2C(N)=O)sc1-c1ccnc(C(C)(C)C(F)(F)F)c1,IC50,second compound 0.0316 µM,> 10 µM
same,IC50,second compound 0.1 µM,> 10 µM
same,IC50,second compound 0.316 µM,> 10 µM
same,IC50,second compound 1 µM,> 10 µM
same,IC50,second compound 3.16 µM,> 10 µM
same,IC50,second compound 10 µM,> 10 µM
same,"viability, T/C",[1],104%
same,"viability, T/C",[2],106%
same,"viability, T/C",[3],119%
same,"viability, T/C",[4],117%
same,"viability, T/C",[5],112%
same,"viability, T/C",[6],103%
same,"viability, T/C",[7],117%
same,"viability, T/C",[8],98.2%
same,"viability, T/C",[9],119%
same,"viability, T/C",[10],104%
same,"viability, T/C",[11],112%
same,"viability, T/C",[12],104%
same,"viability, T/C",[13],107%
same,"viability, T/C",[14],104%
same,"viability, T/C",[15],106%
same,"viability, T/C",[16],108%
same,"viability, T/C",[17],110%
same,"viability, T/C",[18],103%
same,"viability, T/C",[19],92.6%
same,"viability, T/C",[20],99%
same,"viability, T/C",[21],105%
same,"viability, T/C",[22],102%
same,"viability, T/C",[23],111%
same,"viability, T/C",[24],90%
same,"viability, T/C","second compound 3.16 µM, first compound 0.0316 µM",84.8%
same,"viability, T/C","second compound 3.16 µM, first compound 0.1 µM",90.3%
same,"viability, T/C","second compound 3.16 µM, first compound 0.316 µM",96.5%
same,"viability, T/C","second compound 3.16 µM, first compound 1 µM",91.7%
same,"viability, T/C","second compound 3.16 µM, first compound 3.16 µM",95.8%
same,"viability, T/C","second compound 3.16 µM, first compound 10 µM",75.1%
same,"viability, T/C","second compound 10 µM, first compound 0.0316 µM",76.5%
same,"viability, T/C","second compound 10 µM, first compound 0.1 µM",74.3%
same,"viability, T/C","second compound 10 µM, first compound 0.316 µM",83.7%
same,"viability, T/C","second compound 10 µM, first compound 1 µM",76.8%
same,"viability, T/C","second compound 10 µM, first compound 3.16 µM",72.5%
same,"viability, T/C","second compound 10 µM, first compound 10 µM",58.5%
CC(=O)c1c(C)c2cnc(Nc3ccc(N4CCNCC4)cn3)nc2n(C2CCCC2)c1=O + CC(Nc1ccc2c(c1)OCCn1cc(N3C(=O)OCC3C(F)F)nc1-2)C(N)=O,IC50,second compound 0.00316 µM,> 0.1 µM
same,IC50,second compound 0.01 µM,> 0.1 µM
same,IC50,second compound 0.0316 µM,> 0.1 µM
same,IC50,second compound 0.1 µM,> 0.1 µM
same,IC50,second compound 0.316 µM,> 0.1 µM
same,IC50,second compound 1 µM,> 0.1 µM
same,"viability, T/C","second compound 0.00316 µM, first compound 0.000316 µM",113%
same,"viability, T/C","second compound 0.00316 µM, first compound 0.001 µM",103%
same,"viability, T/C","second compound 0.00316 µM, first compound 0.00316 µM",105%
same,"viability, T/C","second compound 0.00316 µM, first compound 0.01 µM",97.2%
same,"viability, T/C",[25],99.9%
same,"viability, T/C",[26],95.7%
same,"viability, T/C","second compound 0.01 µM, first compound 0.000316 µM",109%
same,"viability, T/C","second compound 0.01 µM, first compound 0.001 µM",101%
same,"viability, T/C","second compound 0.01 µM, first compound 0.00316 µM",104%
same,"viability, T/C","second compound 0.01 µM, first compound 0.01 µM",91.2%
same,"viability, T/C",[27],103%
same,"viability, T/C",[28],92.8%
same,"viability, T/C","second compound 0.0316 µM, first compound 0.000316 µM",111%
same,"viability, T/C","second compound 0.0316 µM, first compound 0.001 µM",95.7%
same,"viability, T/C","second compound 0.0316 µM, first compound 0.00316 µM",103%
same,"viability, T/C","second compound 0.0316 µM, first compound 0.01 µM",94.9%
same,"viability, T/C",[1],100%
same,"viability, T/C",[2],95.6%
same,"viability, T/C","second compound 0.1 µM, first compound 0.000316 µM",97.7%
same,"viability, T/C","second compound 0.1 µM, first compound 0.001 µM",100%
same,"viability, T/C","second compound 0.1 µM, first compound 0.00316 µM",92.7%
same,"viability, T/C","second compound 0.1 µM, first compound 0.01 µM",94.8%
same,"viability, T/C",[7],99.1%
same,"viability, T/C",[8],103%
same,"viability, T/C","second compound 0.316 µM, first compound 0.000316 µM",94.3%
same,"viability, T/C","second compound 0.316 µM, first compound 0.001 µM",96.5%
same,"viability, T/C","second compound 0.316 µM, first compound 0.00316 µM",100%
same,"viability, T/C","second compound 0.316 µM, first compound 0.01 µM",93.3%
same,"viability, T/C",[13],103%
same,"viability, T/C",[14],91.4%
same,"viability, T/C","second compound 1 µM, first compound 0.000316 µM",89%
same,"viability, T/C","second compound 1 µM, first compound 0.001 µM",95.8%
same,"viability, T/C","second compound 1 µM, first compound 0.00316 µM",94.1%
same,"viability, T/C","second compound 1 µM, first compound 0.01 µM",95.2%
same,"viability, T/C",[19],96.1%
same,"viability, T/C",[20],82%
C[C@@H](NC(=O)c1ncnc(N)c1Cl)c1ncc(C(=O)Nc2cc(C(F)(F)F)c(Cl)cn2)s1 + CC(Nc1ccc2c(c1)OCCn1cc(N3C(=O)OCC3C(F)F)nc1-2)C(N)=O,IC50,second compound 0.00316 µM,> 10 µM
same,IC50,second compound 0.01 µM,> 10 µM
same,IC50,second compound 0.0316 µM,> 10 µM
same,IC50,second compound 0.1 µM,> 10 µM
same,IC50,second compound 0.316 µM,> 10 µM
same,IC50,second compound 1 µM,> 10 µM
same,"viability, T/C",[25],111%
same,"viability, T/C",[26],109%
same,"viability, T/C",[29],118%
same,"viability, T/C",[30],114%
same,"viability, T/C",[31],118%
same,"viability, T/C",[32],111%
same,"viability, T/C",[27],115%
same,"viability, T/C",[28],108%
same,"viability, T/C",[33],116%
same,"viability, T/C",[34],115%
same,"viability, T/C",[35],118%
same,"viability, T/C",[36],116%
same,"viability, T/C",[1],105%
same,"viability, T/C",[2],102%
same,"viability, T/C",[3],108%
same,"viability, T/C",[4],121%
same,"viability, T/C",[5],122%
same,"viability, T/C",[6],104%
same,"viability, T/C",[7],96.7%
same,"viability, T/C",[8],105%
same,"viability, T/C",[9],107%
same,"viability, T/C",[10],110%
same,"viability, T/C",[11],125%
same,"viability, T/C",[12],107%
same,"viability, T/C",[13],97%
same,"viability, T/C",[14],109%
same,"viability, T/C",[15],113%
same,"viability, T/C",[16],111%
same,"viability, T/C",[17],120%
same,"viability, T/C",[18],101%
same,"viability, T/C",[19],86%
same,"viability, T/C",[20],94.4%
same,"viability, T/C",[21],102%
same,"viability, T/C",[22],104%
same,"viability, T/C",[23],115%
same,"viability, T/C",[24],90.7%
CC(C)NCC(C(=O)N1CCN(c2ncnc3c2C(C)CC3O)CC1)c1ccc(Cl)cc1 (stereo not drawn) + COc1c(OCCCN2CCOCC2)ccc2c3n(c(=NC(=O)c4cnc(N)nc4)nc12)CCN3,IC50,second compound 0.00316 µM,> 10 µM
same,IC50,second compound 0.01 µM,> 10 µM
same,IC50,second compound 0.0316 µM,> 10 µM
same,IC50,second compound 0.1 µM,> 10 µM
same,IC50,second compound 0.316 µM,> 10 µM
same,IC50,second compound 1 µM,> 10 µM
same,"viability, T/C",[25],107%
same,"viability, T/C",[26],95.9%
same,"viability, T/C",[29],115%
same,"viability, T/C",[30],99%
same,"viability, T/C",[31],97.4%
same,"viability, T/C",[32],89.8%
same,"viability, T/C",[27],111%
same,"viability, T/C",[28],106%
same,"viability, T/C",[33],99.3%
same,"viability, T/C",[34],98.8%
same,"viability, T/C",[35],90.6%
same,"viability, T/C",[36],93.3%
same,"viability, T/C",[1],94%
same,"viability, T/C",[2],114%
same,"viability, T/C",[3],88.4%
same,"viability, T/C",[4],95.1%
same,"viability, T/C",[5],89.8%
same,"viability, T/C",[6],86.2%
same,"viability, T/C",[7],79%
same,"viability, T/C",[8],66.4%
same,"viability, T/C",[9],67%
same,"viability, T/C",[10],73.7%
same,"viability, T/C",[11],95.4%
same,"viability, T/C",[12],82.9%
same,"viability, T/C",[13],69.5%
same,"viability, T/C",[14],73.8%
same,"viability, T/C",[15],58.7%
same,"viability, T/C",[16],65.2%
same,"viability, T/C",[17],68.9%
same,"viability, T/C",[18],66.3%
same,"viability, T/C",[19],54.1%
same,"viability, T/C",[20],49.3%
same,"viability, T/C",[21],55.6%
same,"viability, T/C",[22],45.2%
same,"viability, T/C",[23],59.7%
same,"viability, T/C",[24],47.5%
